Data from patent US20050282772A1, “New dietary supplement composition for obesity and inflammation” (priority 2004, published 2005).

Legend:
5-Lipoxygenase = 5-Lipoxygenase inhibitory activity, colorimetric method (ferric xylenol orange); assay type: biochemical
Protocol: 5-Lipoxygenase Activity: The new phytochemical compositions were screened for their 5-Lipoxygenase inhibitory potential using colorimetric method. The assay mixture contained 50 mM phosphate buffer pH 6.3, 5-Lipoxygenase, various concentrations of test substances in dimethyl sulphoxide and linoleic acid in a total volume of 0.5 mL, after 5 min incubation of above reaction mixture, 0.5 mL ferric xylenol orange reagent was added and OD was measured after two minutes at 585 nm using spectrophotometer. Controls were run along with test in a similar manner except using vehicle instead of test substance solution. Percent inhibition was calculated by comparing absorbance of test solution with that of control. The new phytochemical compositions of this invention are found to show 5-lipoxygenase activity (Table 1; 5-lipoxygenase activity is expressed in % of inhibition at 100 μg concentrations; higher the % inhibitory values, higher is the activity).

[1] = DPPH free radical scavenging activity
Protocol: DPPH Free Radical Scavenging Activity. DPPH (1,1-diphenyl-2-picryl-hydrazyl) radical scavenging activity was measured based on the reduction of methanolic solution of the colored DPPH. Free radical scavenging ability of the test drug in ethanol added to the methanolic solution of DPPH is […] to the difference in initial and final absorption of DPPH solution at 516 nm. The reaction mixture contained 1×10^−4 mM methanolic solution of DPPH and various concentrations of test drugs. The percentage inhibition was determined by comparing the absorbance values of test and control tubes.
(§1) The new phytochemical compositions of this invention are found to show antioxidant activity (Table 1; antioxidant activity is measured by two different mechanisms (a) Nitro blue tetrazolium (NBT) (b) DPPH free radical scavenging methods and are expressed in % of inhibition at 500 μg concentrations; higher the % inhibitory values, higher is the activity).

[2] = Superoxide free radical-scavenging activity by NBT (nitro blue tetrazolium) method
Protocol: Superoxide Free Radical-Scavenging Activity. The superoxide free radical-scavenging activity was determined by the NBT (nitro blue tetrazolium) method. The reaction mixture contained EDTA (6.6 mM), NaCN (3 μg), riboflavin (2 μM), NBT (50 μM), various concentrations of the test drug in ethanol and a phosphate buffer (58 mM, pH 7.8) in a final volume of 3 ml. Optical density was measured at 560 nm. The test tubes were uniformly illuminated with an incandescent lamp for 15 min, after which the optical density was measured again at 560 nm. The percentage inhibition and superoxide radical generation was measured by comparing the absorbance values of the control and those of the test compounds.
as §1

[3] = similar active dose; animal study; cited from earlier work
[4] = in vivo; cited from earlier work

| % inhibition of 5-LOX activity at 100 μg concentrations (5-Lipoxygenase) [%] | Compound | % inhibition of DPPH free radical scavenging activity at 500 μg concentrations [1] [%] | % inhibition of NBT free radical scavenging activity at 500 μg concentrations [2] [%] | ulcerogan index [3] | LD50 [4] [mg/kg] |
| --- | --- | --- | --- | --- | --- |
| 0.2 | Calcium, potassium salt of (−)-HCA [HCA (70%)] | 0 | 25.5 |  |  |
| 0 | Cl.N[C@H]1C(O)O[C@H](CO)[C@@H](O)[C@@H]1O (some centres unmarked) [Glucosamine HCl, glucosamine hydrochloride] | 2.8 | 5.6 |  |  |
|  | CCCCC1C(=O)N(c2ccccc2)N(c2ccccc2)C1=O [phenylbutazone] |  |  | 1.7 |  |
|  | N[C@@H](Cc1c[nH]c2ccc(O)cc12)C(=O)O [Composition 5-HTP, 5-Hydroxytryptophan] |  |  |  | > 2500 |
